Experimental data published in patent publication US20130225508A1, “PEPTIDE CAPABLE OF BINDING TO IMMUNOGLOBULIN” (priority 2010, published 2013).
No end group written: not given here.

Assays:
Arthus reaction = assay: Type III allergic (Arthus) reaction-induced rat model, dye leakage; format: in vivo, Slc:Wistar rats; settings: 50 mg/kg intraperitoneal; mean±SD
Procedure: Using forty-two 7-week-old male Slc:Wistar rats, examinations were made on test substance VII-2, with each of intraperitoneal administration and intravenous administration into tail vain. Acclimation was carried out by giving normal solid chow CRF-1 for a period of 6 days or longer. On the day prior to administration, the back of each animal was shaved. On the day of administration, a mixed solution of egg-white Ovalbumin (MP Biomedicals) (hereinafter referred to as “OVA”) and Evans blue dye was administered into the tail vein. […] The amount of dye leakage was quantified by measuring absorbance for the Evans blue dye with a spectrophotometer and using a calibration curve. […]
Several cuttings were made in the skin strips that had been punched out with a punch. […] The amount of dye leakage was calculated from a calibration curve of known amounts of the dye.
The mean value (mean)±standard deviation (SD) for each of the groups was calculated with respect to body-weight measurements and amounts of dye leakage. For amounts of dye leakage, the value for each of the animals was determined by subtracting the mean of the values obtained for the two sites of PBS administration from the mean of the values obtained for the two sites of administration of the anti-OVA solution. […]

IL-1β in plasma = IL-1β in plasma of adjuvant arthritis rats (ELISA); format: in vivo, rat; settings: day 21 post-adjuvant; 10 mg/kg oral from day 10
Procedure: (§1) TNF-α and IL-1β in plasma were measured in a double-point method using the TNF-α ELISA kit (Lbis® TNF-α-rat) and the IL-1β ELISA kit (Quantikine® Rat IL-1β/IL-1F2).
(§2) On day 21 post-adjuvant, the animals were subjected to autopsy, and plasma was prepared to measure IL-1β and TIN-α concentrations in plasma. In all the groups for which measurements were made, the concentration of TNF-α was below the detection limit (8 pg/mL).

TNF-α in plasma = TNF-α in plasma of adjuvant arthritis rats (ELISA); format: in vivo, rat; settings: day 21 post-adjuvant; 10 mg/kg oral from day 10
Procedure: as §1, §2

[1] = tested on: adjuvant-induced arthritis; assay: Adjuvant arthritis rat model; format: in vivo, Lewis/CrlCrlj rats; design: key to Redness scores (left hind-limb) / Redness scores (right hind-limb): 0 = no redness, 4 = severe redness; key to Scores of swelling in the instep (left hind-limb) / Scores of swelling in the instep (right hind-limb): 0 = no swelling, 4 = severe swelling; key to Scores of swelling in knuckle joints (left hind-limb) / Scores of swelling in knuckle joints (right hind-limb): 0 = no swelling, 4 = swelling of all the digits; settings: 10 mg/kg oral from day 10
Source text: Male Lewis/CrlCrlj (SPF) rats were used to investigate the arthritis suppressing effect of a peptide of the present invention on adjuvant-induced arthritis. Forty-five rats were purchased from Charles River Laboratories Japan, Inc., and fed normal chow and allowed to acclimate for 7 days before used (the range of body weights was from 193.3 to 218.3 g at the beginning of use).
In an agate motor, dead tubercle bacilli (Mycobacterium butyricum; Lot No. 0260570, Difco) were pulverized. Then, liquid paraffin was added in small amounts to spread the pulverized bacilli well, so as to allow them to be emulsified at 1.0 mg/mL. The resultant emulsion was used after verification to ensure that the pulverized bacilli had been allowed to be finely emulsified, using an NM MICRONIZER (Nippon Seiki Co., Ltd.).
A right hind-limb of the respective rats was exposed, and 100 μL of the emulsion was intradermally injected once into a footpad of the right hind-limb using a 25G-needle attached syringe, to cause arthritis (day 0).
Each of the groups was comprised of 5 animals.
Arthritis was evaluated only for the hind-limbs, based on the criteria described below:
Score 0: no swelling Score 1: swelling of not more than two digits Score 2: swelling of three digits Score 3: swelling of four digits Score 4: swelling of all the digits
Score 0: no swelling Score 1: mild swelling Score 2: modest swelling Score 3: rather severe swelling Score 4: severe swelling
Score 0: no redness Score 1: mild redness Score 2: modest redness Score 3: rather severe redness Score 4: severe redness (iii) Measurement of Foot Volumes of Left And Right Hind-Limbs
Measurement was performed using a plethysmometer (UNICOM TK105). The increasing rate foot volume (percentage of paw swelling, paw swelling %) was calculated by the following formula:
Percent paw swelling (%)=[(Vt−Vo)/Vo]×100
In addition, in these examinations, the percent change of edema relative to day 10 post-adjuvant was calculated, in order to assess the effect of treatment with the test substances.
Data are expressed by mean±standard error. Since the uniformity of variance was not verified in testing between the negative and the positive control groups, testing for significant difference was performed by Aspin-Welch t-test. Since the uniformity of variance was not verified in testing for significant differences of the respective test-substance administered groups relative to the positive control group, assessment was performed by Dunnett's multiple comparison test after Kruskal-Wallis testing, using non-parametric procedures. Differences were considered to be statistically significant at p values of less than 0.05.

[2] = Evaluation of solubility of peptides in water (PBS or physiological saline); format: physicochemical; settings: solvent PBS or physiological saline
Procedure: Water solubility was evaluated for peptides in which various kinds of hydrophilic amino acid were substituted for the 4th and 5th amino acids which were verified in (1) to be allowed to be mutated. The peptides listed in Table 2 were synthesized by GL Biochem (Shanghai). Among the peptides listed in Table 2, peptides SP1 to SP7 are peptides in which various kinds of hydrophilic amino acid were substituted for the 4th and 5th amino acids.
In Table 3, the circle symbol is assigned to a peptide which was dissolved in a solvent (PBS or physiological saline) at a concentration of 10 mg/ml or higher, and the cross symbol is assigned to a peptide which was not dissolved at a concentration of 1 mg/ml. […] In the subsequent experiments, the peptides in which the 4th and 5th amino acids were substituted by hydrophilic amino acids were used.

## C[C@]12CCC(=O)C=C1CC[C@@H]1[C@@H]2[C@@H](O)C[C@@]2(C)[C@H]1CC[C@]2(O)C(=O)CO [Hydrocortisone]
Arthus reaction
  amount of dye leakage (Evans blue): 5.665±0.674 μg/animal

## Cc1oncc1C(=O)Nc1ccc(C(F)(F)F)cc1 [Reflumide]
IL-1β in plasma
  Concentrations of IL-1β in plasma: 13.0 ± 2.5 pg/mL
TNF-α in plasma
  Concentrations of TNF-α in plasma: N.D (N.D.: below detection limit)
[1]; Day 0 post-adjuvant
  Percent increase in foot volume relative to pre-adjuvant (left hind-limb): 0.00 ± 0.0%
  Percent increase in foot volume relative to pre-adjuvant (right hind-limb): 0.00 ± 0.0%
  Redness scores (left hind-limb): 0.0 ± 0.0
  Redness scores (right hind-limb): 0.0 ± 0.0
  Scores of swelling in knuckle joints (left hind-limb): 0.0 ± 0.0
  Scores of swelling in knuckle joints (right hind-limb): 0.0 ± 0.0
  Scores of swelling in the instep (left hind-limb): 0.0 ± 0.0
  Scores of swelling in the instep (right hind-limb): 0.0 ± 0.0
  Total scores (left hind-limb): 0.0 ± 0.0
  Total scores (right hind-limb): 0.0 ± 0.0
[1]; Day 3 post-adjuvant
  Percent increase in foot volume relative to pre-adjuvant (left hind-limb): 13.28 ± 0.4%
  Percent increase in foot volume relative to pre-adjuvant (right hind-limb): 13.33 ± 0.4%
  Redness scores (left hind-limb): 0.0 ± 0.0
  Redness scores (right hind-limb): 0.0 ± 0.0
  Scores of swelling in knuckle joints (left hind-limb): 0.0 ± 0.0
  Scores of swelling in knuckle joints (right hind-limb): 0.0 ± 0.0
  Scores of swelling in the instep (left hind-limb): 0.0 ± 0.0
  Scores of swelling in the instep (right hind-limb): 0.0 ± 0.0
  Total scores (left hind-limb): 0.0 ± 0.0
  Total scores (right hind-limb): 0.0 ± 0.0
[1]; Day 7 post-adjuvant
  Percent increase in foot volume relative to pre-adjuvant (left hind-limb): 18.56 ± 3.3%
  Percent increase in foot volume relative to pre-adjuvant (right hind-limb): 26.75 ± 1.4%
  Redness scores (left hind-limb): 0.4 ± 0.2
  Redness scores (right hind-limb): 0.6 ± 0.2
  Scores of swelling in knuckle joints (left hind-limb): 0.4 ± 0.2
  Scores of swelling in knuckle joints (right hind-limb): 0.2 ± 0.2
  Scores of swelling in the instep (left hind-limb): 0.4 ± 0.2
  Scores of swelling in the instep (right hind-limb): 1.0 ± 0.0
  Total scores (left hind-limb): 1.2 ± 1.6
  Total scores (right hind-limb): 1.8 ± 0.5
[1]; Day 10 post-adjuvant
  Percent increase in foot volume relative to pre-adjuvant (left hind-limb): 22.94 ± 3.6%
  Percent increase in foot volume relative to pre-adjuvant (right hind-limb): 49.75 ± 15.8%
  Redness scores (left hind-limb): 0.8 ± 0.4
  Redness scores (right hind-limb): 1.2 ± 0.2
  Scores of swelling in knuckle joints (left hind-limb): 1.4 ± 0.4
  Scores of swelling in knuckle joints (right hind-limb): 1.6 ± 0.6
  Scores of swelling in the instep (left hind-limb): 0.6 ± 0.4
  Scores of swelling in the instep (right hind-limb): 1.4 ± 0.4
  Total scores (left hind-limb): 2.8 ± 1.4
  Total scores (right hind-limb): 4.2 ± 1.5
[1]; Day 14 post-adjuvant
  Percent increase in foot volume relative to day 10 post-adjuvant (left hind-limb): −2.2 ± 1.6%
  Percent increase in foot volume relative to day 10 post-adjuvant (right hind-limb): −1.3 ± 2.9^ %
  Percent increase in foot volume relative to pre-adjuvant (left hind-limb): 20.13 ± 3.2%
  Percent increase in foot volume relative to pre-adjuvant (right hind-limb): 46.22 ± 10.7%
  Redness scores (left hind-limb): 0.4 ± 0.2
  Redness scores (right hind-limb): 1.2 ± 0.2
  Scores of swelling in knuckle joints (left hind-limb): 0.6 ± 0.4
  Scores of swelling in knuckle joints (right hind-limb): 1.4 ± 0.4
  Scores of swelling in the instep (left hind-limb): 0.2 ± 0.2
  Scores of swelling in the instep (right hind-limb): 1.2 ± 0.2
  Total scores (left hind-limb): 1.2 ± 1.0
  Total scores (right hind-limb): 3.8 ± 1.0
[1]; Day 17 post-adjuvant
  Percent increase in foot volume relative to day 10 post-adjuvant (left hind-limb): 1.2 ± 6.3%
  Percent increase in foot volume relative to day 10 post-adjuvant (right hind-limb): −3.4 ± 2.8%
  Percent increase in foot volume relative to pre-adjuvant (left hind-limb): 24.18 ± 7.7%
  Percent increase in foot volume relative to pre-adjuvant (right hind-limb): 43.17 ± 11.2%
  Redness scores (left hind-limb): 0.6 ± 0.6
  Redness scores (right hind-limb): 0.8 ± 0.2
  Scores of swelling in knuckle joints (left hind-limb): 0.6 ± 0.4
  Scores of swelling in knuckle joints (right hind-limb): 0.0 ± 0.0
  Scores of swelling in the instep (left hind-limb): 0.2 ± 0.2
  Scores of swelling in the instep (right hind-limb): 1.2 ± 0.2
  Total scores (left hind-limb): 1.4 ± 1.5
  Total scores (right hind-limb): 2.0 ± 0.0
[1]; Day 21 post-adjuvant
  Percent increase in foot volume relative to day 10 post-adjuvant (left hind-limb): −1.4 ± 6.1%
  Percent increase in foot volume relative to day 10 post-adjuvant (right hind-limb): −5.9 ± 4.1%
  Percent increase in foot volume relative to pre-adjuvant (left hind-limb): 20.93 ± 7.3%
  Percent increase in foot volume relative to pre-adjuvant (right hind-limb): 38.93 ± 9.5%
  Redness scores (left hind-limb): 0.6 ± 0.6
  Redness scores (right hind-limb): 1.4 ± 0.4
  Scores of swelling in knuckle joints (left hind-limb): 0.4 ± 0.4
  Scores of swelling in knuckle joints (right hind-limb): 0.6 ± 0.6
  Scores of swelling in the instep (left hind-limb): 0.4 ± 0.4
  Scores of swelling in the instep (right hind-limb): 1.4 ± 0.4
  Total scores (left hind-limb): 1.4 ± 1.8
  Total scores (right hind-limb): 3.4 ± 1.8

## PGLDHF [SP3, PGLDHF]
[2]
  solubility: ≥ 10000 µg/mL

## PGLDKF [SP1, PGLDKF]
[2]
  solubility: ≥ 10000 µg/mL

## PGLDRF [SP2, PGLDRF]
[2]
  solubility: ≥ 10000 µg/mL

## PGLEHF [SP6, PGLEHF]
[2]
  solubility: ≥ 10000 µg/mL

## PGLEKF [SP4, PGLEKF]
[2]
  solubility: ≥ 10000 µg/mL

## PGLERF [SP5, PGLERF]
[2]
  solubility: ≥ 10000 µg/mL

## PGLSSF [SP7, PGLSSF]
[2]
  solubility: ≥ 10000 µg/mL

## PGLYYF [R1, PGLYYF]
[2]
  solubility: < 1000 µg/mL
